Experimental data reported in patent US20100197591A1, “4-AMINO-7,8-DIHYDROPYRIDO[4,3-d]PYRIMIDIN-5(6H)-ONE DERIVATIVES” (pfizer Inc, priority 2009, published 2010).

What follows are compounds tested against T1, Human full-length diacylglycerol:acylCoA acyltransferase 1 (DGAT-1) (Homo sapiens, UniProt O75907) (assay: DGAT-1 Reduced Microsome Multidose Assay, G7329F Human IC50). Conditions: crude membrane fraction of Sf9 cells expressing human DGAT-1; [14C]decanoylCoA; apparent IC50, average where tested more than once.
T1 construct: Human full-length diacylglycerol:acylCoA acyltransferase 1 (DGAT-1) was expressed in Sf9 insect cells; made in house; host or cells: Sf9 insect cells (baculovirus); crude membrane/microsome fraction
T1 sequence (O75907 1-488): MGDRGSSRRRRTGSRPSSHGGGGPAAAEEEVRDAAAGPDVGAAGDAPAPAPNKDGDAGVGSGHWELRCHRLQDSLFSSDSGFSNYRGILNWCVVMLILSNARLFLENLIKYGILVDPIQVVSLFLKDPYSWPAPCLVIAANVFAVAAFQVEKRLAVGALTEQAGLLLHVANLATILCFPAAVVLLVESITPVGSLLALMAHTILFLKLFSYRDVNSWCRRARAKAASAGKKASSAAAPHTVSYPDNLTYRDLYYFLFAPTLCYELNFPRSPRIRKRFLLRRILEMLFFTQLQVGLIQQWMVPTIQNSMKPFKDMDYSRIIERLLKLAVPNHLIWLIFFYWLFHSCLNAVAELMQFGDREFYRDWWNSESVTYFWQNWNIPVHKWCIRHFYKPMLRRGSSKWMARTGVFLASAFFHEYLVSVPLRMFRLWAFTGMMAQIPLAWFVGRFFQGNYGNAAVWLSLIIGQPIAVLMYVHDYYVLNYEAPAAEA
Type: biochemical
Procedure: (§1) Human full-length diacylglycerol:acylCoA acyltransferase 1 (DGAT-1) was expressed in Sf9 insect cells which are then lysed and a crude membrane fraction (105,000×g pellet) was prepared. The DGAT-1 gene is a human DGAT-1 gene described in J Biol Chem 273:26765 (1998) and U.S. Pat. No. 6,100,077.
(§2) In vitro inhibition of DGAT-1 was measured using a modification, further described below, of the assay methodology described in U.S. Pat. No. 6,994,956 B2.
(§3) The cells were cultured as follows. Sf9 cells (20 L) were infected with 4 mL of DGAT-1 Baculovirus Infected Insect Cells (BIIC) for 72 hours in a Wave Bioreactor System 20/50P (Wave Biotec/GE Healthcare).
(§4) Crude DGAT-1 microsomes were prepared as follows. Cell pellets were washed once with ice-cold Dulbecco's phosphate-buffered saline. Cells were collected in tabletop centrifuge (Beckman GS-6KR), 15 minutes, 2000×g, 4° C. Twenty (20) mL of ice-cold Microsome Buffer (MB) was added per 5 g of cell pellet. The suspension was passed through a microfluidizer 3 times (18K psi). The lysate was transferred to centrifuge tubes and centrifuged for 20 minutes at 5000×g (Beckman-Coulter, Inc. Allegra® 64R High-Speed Refrigerated Benchtop Centrifuge, F0650 rotor) at 4° C. The supernatant was transferred to ultracentrifuge tubes and centrifuged at 125,000×g for 1 hour in a Beckman Ti-45 rotor, 4° C. The supernatant fluid was discarded. The pellet was resuspended in 70 mL of MB by sonication. The microsome concentration was determined using Bio-Rad Protein DC Protein Assay. The microsomes were filter sterilized with a 0.22 μm filter. The samples were portioned, flash frozen and stored at −80° C.
(§5) The Microsome Buffer, used for microsome preparation, was prepared by conventional means and contained 125 mM sucrose, 3 mM imidazole, 0.2 μg/mL aprotinin, 0.2 μg/mL leupeptin and 5 mM dithiothreitol (Cleland's reagent), DGAT-1 activity was measured in 384-well format in a total assay volume of 25 μl that contained, Hepes buffer (50 mM, pH 7.5), MgCl2 (10 mM), bovine serum albumin (0.6 mg/ml), [^14C]decanoylCoA (20 μM, 58 Ci/mol) and membranes (25 μg/ml) into which 1,2 dioleoyl-sn-glycerol (75 μM) in acetone has already been incorporated. Inhibitors in DMSO were pre-incubated with membranes before initiating the DGAT-1 reaction by the addition of decanoylCoA. […] The DMSO concentration was 2.5%. The inhibitors were present at a range of eight concentrations to generate an apparent IC50 for each compound. The eight inhibitor concentration employed ranged from 10 μM to 3 nM (from high to low concentration). Specifically, the eight concentrations used were 10 μM, 3 μM, 1 μM, 300 nM, 100 nM, 30 nM, 10 nM and 3 nM.
(§6) Reaction mixtures were neutralized by the addition of 15 μl of tris(hydroxy-methyl)aminomethane (1M, pH 8.0) and then mixed by trituration with 37.5 μl of Microscint™-E (Perkin Elmer). Plates contents were allowed to partition for 15 to 30 min before ^14C was measured in a scintillation spectrometer (Wallac Microbeta Trilux 1450-030 liquid scintillation counter 12 detector in the top-count DPM mode). Percent inhibition of test compounds was computed as […].
(§7) Four separate assays were performed using 4 different methods of analysis. The method of analysis of Assay 1 was the same as Assay 4 (described above) except microsomes were utilized at 25 μg/mL instead of 5 μg/mL. The method of analysis of Assay 2 was the same as Assay 4 (described above) except eleven (11) concentrations of inhibitor were employed instead of eight (8). The method of analysis of Assay 3 was the same as Assay 2 except the compounds were serially diluted in a different laboratory.
(§8) Where this DGAT-1 inhibition assay was performed on a compound more than once, an average is provided for that compound.
`COc1nc(N)c2c(n1)CCN(c1ccc(OCC3CC3)cc1)C2=O` [Example 9H, 4-amino-6-[4-(cyclopropylmethoxy)phenyl]-2-methoxy-7,8-dihydropyrido[4,3-d]pyrimidin-5(6H)-one] was tested, and the IC50 was 115 nM. `COc1nc(N)c2c(n1)CCN(c1ccc(OCC(C)C)cc1)C2=O` [Example 9I, 4-amino-6-(4-isobutoxyphenyl)-2-methoxy-7,8-dihydropyrido[4,3-d]pyrimidin-5(6H)-one] showed an IC50 of 84.1 nM. `COc1nc(N)c2c(n1)CCN(c1ccc3nc[nH]c3c1)C2=O` [Example 9J, 4-amino-6-(1H-benzimidazol-6-yl)-2-methoxy-7,8-dihydropyrido[4,3-d]pyrimidin-5(6H)-one] was tested, and the IC50 was 1400 nM. Work on `COc1nc(N)c2c(n1)CCN(c1ccc(C3(C)CCCO3)cc1)C2=O` (centres unmarked) [Example 9K, 4-amino-2-methoxy-6-[4-(2-methyltetrahydrofuran-2-yl)phenyl]-7,8-dihydropyrido[4,3-d]pyrimidin-5(6H)-one] yielded an IC50 of 63.2 nM. `COc1nc(N)c2c(n1)CCN(c1ccc(CCC(F)(F)F)cc1)C2=O` [Example 9L, 4-amino-2-methoxy-6-[4-(3,3,3-trifluoropropyl)phenyl]-7,8-dihydropyrido[4,3-d]pyrimidin-5(6H)-one] was tested, and the IC50 was 77.4 nM. In the case of `COc1nc(N)c2c(n1)CCN(c1ccc(SC(C)(C)C)cc1)C2=O` [Example 9N, 4-amino-6-[4-(tert-butylthio)phenyl]-2-methoxy-7,8-dihydropyrido[4,3-d]pyrimidin-5(6H)-one], the IC50 is reported as 23.9 nM. With `COc1nc(N)c2c(n1)CCN(c1ccc([S+]([O-])C(C)(C)C)cc1)C2=O` (centres unmarked) [Example 9O, 4-amino-6-[4-(tert-butylsulfinyl)phenyl]-2-methoxy-7,8-dihydropyrido[4,3-d]pyrimidin-5(6H)-one] the IC50 was 648 nM. `COc1nc(N)c2c(n1)CCN(c1ccc(S(=O)(=O)C(C)(C)C)cc1)C2=O` [Example 9P, 4-amino-6-[4-(tert-butylsulfonyl)phenyl]-2-methoxy-7,8-dihydropyrido[4,3-d]pyrimidin-5(6H)-one] gave an IC50 of 784 nM. In the case of `COc1nc(N)c2c(n1)CCN(c1ccc(C(O)C(C)(C)C)cc1)C2=O` (centres unmarked) [Example 10A, 4-amino-6-[4-(1-hydroxy-2,2-dimethylpropyl)phenyl]-2-methoxy-7,8-dihydropyrido[4,3-d]pyrimidin-5(6H)-one], the IC50 is reported as 58.8 nM. With `COc1nc(N)c2c(n1)CCN(c1ccc(C(OC)C(C)(C)C)cc1)C2=O` (centres unmarked) [Example 10D, 4-amino-2-methoxy-6-[4-(1-methoxy-2,2-dimethylpropyl)phenyl]-7,8-dihydropyrido[4,3-d]pyrimidin-5(6H)-one] the IC50 was 27.9 nM. With `CC(C)(C)c1ccc(N2CCc3ncnc(N)c3C2=O)cc1` [Example 11A, 4-amino-6-(4-tert-butylphenyl)-7,8-dihydropyrido[4,3-d]pyrimidin-5(6H)-one] the IC50 was 117 nM.

These compounds were tested against T1, Human full-length diacylglycerol:acylCoA acyltransferase 1 (DGAT-1) (assay: DGAT-1 Reduced Microsome Multidose Assay, G7829E Human IC50). Conditions: crude membrane fraction of Sf9 cells expressing human DGAT-1; [14C]decanoylCoA; terminated with 5 μl of 1.4% phosphoric acid instead of HCl; average where tested more than once.
Type: biochemical
Procedure: as §1, §2, §3, §4, §5, §6, §7, §8
`COc1nc(N)c2c(n1)CCN(c1ccc(C(=O)C(C)(C)C)cc1)C2=O` [Example 1F, 4-amino-6-[4-(2,2-dimethylpropanoyl)phenyl]-2-methoxy-7,8-dihydropyrido[4,3-d]pyrimidin-5(6H)-one] gave an IC50 of 192 nM. In the case of `COc1nc(N)c2c(n1)CCN(c1cccc(C(C)(C)CO)c1)C2=O` [Example 1K, 4-amino-6-[3-(2-hydroxy-1,1-dimethylethyl)phenyl]-2-methoxy-7,8-dihydropyrido[4,3-d]pyrimidin-5(6H)-one], the IC50 is reported as 831 nM. With `COc1nc(N)c2c(n1)CCN(c1ccc(C(C)(C)c3ncco3)cc1)C2=O` [Example 1L, 4-amino-2-methoxy-6-{4-[1-methyl-1-(1,3-oxazol-2-yl)ethyl]phenyl}-7,8-dihydropyrido[4,3-d]pyrimidin-5(6H)-one] the IC50 was 34.8 nM. With `COc1nc(N)c2c(n1)CCN(c1ccc(C(C)(C)c3cnco3)cc1)C2=O` [Example 1M, 4-amino-2-methoxy-6-{4-[1-methyl-1-(1,3-oxazol-5-yl)ethyl]phenyl}-7,8-dihydropyrido[4,3-d]pyrimidin-5(6H)-one] the IC50 was 11.3 nM. Compound `COc1nc(N)c2c(n1)CCN(c1ccc(C(C)(C)c3cc[nH]n3)cc1)C2=O` [Example 1N, 4-amino-2-methoxy-6-{4-[1-methyl-1-(1H-pyrazol-3-yl)ethyl]phenyl}-7,8-dihydropyrido[4,3-d]pyrimidin-5(6H)-one] has an IC50 of 31.9 nM. `COc1nc(N)c2c(n1)CCN(c1ccc(CC(C)(C)O)cc1)C2=O` [Example 1S, 4-amino-6-[4-(2-hydroxy-2-methylpropyl)phenyl]-2-methoxy-7,8-dihydropyrido[4,3-d]pyrimidin-5(6H)-one] showed an IC50 of 44.3 nM. `COc1nc(N)c2c(n1)CCN(c1ccc3c(c1)COC3(C)C)C2=O` [Example 1U, 4-amino-6-(1,1-dimethyl-1,3-dihydro-2-benzofuran-5-yl)-2-methoxy-7,8-dihydropyrido[4,3-d]pyrimidin-5(6H)-one] gave an IC50 of 229 nM. For `COc1nc(N)c2c(n1)CCN(c1ccc(C3(O)CCCCC3)cc1)C2=O` [Example 1V, 4-amino-6-[4-(1-hydroxycyclohexyl)phenyl]-2-methoxy-7,8-dihydropyrido[4,3-d]pyrimidin-5(6H)-one], the IC50 was 113 nM. `CCC(O)(CC)c1ccc(N2CCc3nc(OC)nc(N)c3C2=O)cc1` [Example 1W, 4-amino-6-[4-(1-ethyl-1-hydroxypropyl)phenyl]-2-methoxy-7,8-dihydropyrido[4,3-d]pyrimidin-5(6H)-one] was tested, and the IC50 was 34 nM. `COc1nc(N)c2c(n1)CCN(c1ccc(C(C)(C)c3ccon3)cc1)C2=O` [Example 3B, 4-amino-6-[4-(1-isoxazol-3-yl-1-methylethyl)phenyl]-2-methoxy-7,8-dihydropyrido[4,3-d]pyrimidin-5(6H)-one] gave an IC50 of 55 nM. `COc1nc(N)c2c(n1)CCN(c1ccc(C(C)(C)c3ccno3)cc1)C2=O` [Example 3C, 4-amino-6-[4-(1-isoxazol-5-yl-1-methylethyl)phenyl]-2-methoxy-7,8-dihydropyrido[4,3-d]pyrimidin-5(6H)-one] was tested, and the IC50 was 4.5 nM. With `COc1nc(N)c2c(n1)CCN(c1ccc(C(C)(C)c3nnnn3C)cc1)C2=O` [Example 3Q, 4-amino-2-methoxy-6-{4-[1-methyl-1-(1-methyl-1H-tetrazol-5-yl)ethyl]phenyl}-7,8-dihydropyrido[4,3-d]pyrimidin-5(6H)-one] the IC50 was 95.3 nM.
